Measurements published in patent US20250295815A1, “PORPHYRIN-HYDROPORPHYRIN COMPOUNDS, COMPOSITIONS COMPRISING THE SAME AND METHODS OF USE THEREOF” (North Carolina State University, priority 2021, published 2025).

Assay: Dyad photophysical properties in toluene, excited at 405 nm
Type: physicochemical
Parameters: ext coeff (abs max B) / brightness (abs max): unit not given here
Settings: for ext coeff (405 nm) / brightness (405 nm): at 405 nm; for ext coeff (405 nm) / FWHM / QY (x405) / abs max B / abs max Qx / abs max Qy / ext coeff (abs max B) / em max: room temperature; for ext coeff (405 nm): in M-1 cm-1 (unit assumed); for FWHM: emission peak; for FWHM / QY (x405) / em max: excited at 405 nm; for QY (x405): fluorescence quantum yield; for brightness (405 nm) / brightness (abs max): molar absorption coefficient x fluorescence quantum yield; for brightness (405 nm): in M⁻¹cm⁻¹; for brightness (abs max): at abs max
Experimental: The photophysical properties of samples were tested in toluene at room temperature and excited at 405 nm.

ext coeff (405 nm)	FWHM [nm]	QY (x405)	brightness (405 nm)	brightness (abs max)	abs max B [nm]	abs max Qx [nm]	abs max Qy [nm]	ext coeff (abs max B)	em max [nm]	Structure (SMILES)
318,900	–	0.07	22,648	23,813	407	532	656	335,300	659	COC(=O)c1ccc(-c2c3nc(cc4ccc(cc5nc(cc6[nH]c2cc6C#Cc2ccc(CNC(=O)c6ccc(C7=C8C=CC(=N8)C=c8ccc9[n]8[Zn][n]8c(ccc87)C=C7C=CC(=N7)C=9)cc6)cc2)CC5(C)C)[nH]4)C=C3)cc1 [Dyad P4-C3]
227,600	29	0.20	46,569	52,298	408	538	769	255,600	777	COC(=O)c1ccc(-c2c(C(=O)OC)c3cc4nc(cc5[nH]c(c(OC)c6nc(cc2[nH]3)C(C)(C)C6)c(C(=O)OC)c5C#Cc2ccc(C3=C5C=CC(=N5)C=c5ccc6[n]5[Zn][n]5c(ccc53)C=C3C=CC(=N3)C=6)cc2)C(C)(C)C4)cc1 [Dyad P8-BC2]
181,500	14	0.04	8,055	11,570	414	540	607	260,700	608	COC(=O)c1ccc(C2=c3ccc4[n]3[Zn][n]3c(ccc3C(c3ccc(C#Cc5ccc(C6=c7ccc8[n]7[Zn][n]7c(ccc7C=C7N=C(C=8)CC7(C)C)C=C7C=CC6=N7)cc5)cc3)=C3C=CC(=N3)C=4)C=C3C=CC2=N3)cc1 [P9-C4, methyl ester]

More lines, now with the values behind:

Structure (SMILES)	ext coeff (405 nm)	FWHM [nm]	QY (x405)	brightness (405 nm)	brightness (abs max)	abs max B [nm]	abs max Qx [nm]	abs max Qy [nm]	ext coeff (abs max B)	em max [nm]
COC(=O)c1ccc(C#Cc2cc3cc4nc(cc5[nH]c(cc6nc(c(OC)c2[nH]3)CC6(C)C)cc5C#Cc2ccc(-c3c5nc(cc6ccc(cc7nc(cc8ccc3[nH]8)C=C7)[nH]6)C=C5)cc2)CC4(C)C)cc1 [Dyad P1-BC1]	276,800	21	0.23	64,405	64,405	405	529	760	276,800	765
COC(=O)c1ccc(-c2c3nc(cc4ccc(cc5nc(cc6[nH]c2cc6C#Cc2ccc(-c6c7nc(cc8ccc([nH]8)c(-c8c(C)cc(C)cc8C)c8nc(cc9ccc6[nH]9)C=C8)C=C7)cc2)CC5(C)C)[nH]4)C=C3)cc1 [P7-C1; P6-C3]	227,900	15	0.21	47,083	60,532	410	505	659	293,000	660
COC(=O)c1ccc(-c2c3nc(cc4ccc(cc5nc(cc6[nH]c2cc6C#Cc2ccc(C6=C7C=CC(=N7)C=c7ccc8[n]7[Zn][n]7c(ccc76)C=C6C=CC(=N6)C=8)cc2)CC5(C)C)[nH]4)C=C3)cc1 [P8-C2, methyl ester]	241,700	15	0.33	80,872	88,133	408	534	659	263,400	661
